US7459281B2, “Docetaxel immunoassay” (Saladax Biomedical Inc., priority 2005, dated 2008)

Assays:
[1] = test system: docetaxel monoclonal antibody (produced in Example 11); test: Indirect competitive microtiter plate ELISA, IC50 and cross-reactivity, monoclonal antibodies to C7 substituted docetaxel acid derivative conjugate; format: binding, mouse (BALB/c); conditions: monoclonal antibody of Example 11, immunogen of Examples 9a & 9b; microtiter plate prepared as in Example 13
Procedure: For monoclonal antibodies starting […] before the fusion, the mice were injected i.p. with 400 μg (3 days before fusion), 200 μg (2 days before fusion), and 200 μg (1 day before fusion) on three successive days with either docetaxel-BTG or docetaxel-KLH (depending on the original immunogen) in PBS. According to the protocol of Coligan et al. spleen cells were isolated from the selected mice and fused with 2×10^7 cells of the myeloma fusion partner cell line (SP2/o) using 50% polyethylene glycol 1500 [Coligan, J. E. et al., eds., Current Protocols in Immunology, 2.5.1-2.5.8, (1992), Wiley & Sons, NY.] […]
Antibodies were screened by Enzyme-Linked Immunosorbent Assay (ELISA) method. […] Following the incubation for color development, 50 μL of stop solution (1.5% sodium fluoride in di H2O) was added to each well to stop the color development and after 10 seconds of shaking the absorbance was determined at 650 nm on a 96-well plate reader. The amount of antibody in a well was proportional to the absorbance measured. Samples with an absorbance of three times background or greater were designated as positive.
(§1) Docetaxel concentrations were measured by an indirect competitive Enzyme-Linked Immunosorbent Assay (ELISA) method. […]

[2] = test system: docetaxel antibody (antiserum produced in Example 11 with C7 substituted docetaxel acid derivative immunogen); test: Indirect competitive microtiter plate ELISA, IC50 and cross-reactivity, polyclonal antibodies to C7 substituted docetaxel acid derivative conjugate; format: binding, mouse (BALB/c); conditions: antibody of Example 11, immunogen of Example 9a
Procedure: Ten Female BALB/c mice were immunized i.p. with 100 μg/mouse of docetaxel-immunogen: either docetaxel-BTG as prepared in Example 9a or docetaxel-KLH immunogen as prepared in Example 9b emulsified in Complete Freund's Adjuvant. After the initial injection mice were boosted once after four weeks with 100 μg/mouse of the same immunogen emulsified in Incomplete Freund's Adjuvant. Ten days after the boosts test bleeds from each mouse were obtained by orbital bleed. The anti-serum from the last test bleeds containing docetaxel antibodies from each of the mice were evaluated by the procedures in Examples 14a and 16 to determine their reactivity to docetaxel and their cross reactivity to 10-O-Deacytlbaccatin III and, paclitaxel [Taxol].
Antibodies were screened by Enzyme-Linked Immunosorbent Assay (ELISA) method. This method for screening docetaxel antibodies (produced in Examples 10 and 11) was performed with the microtiter plates that were sensitized with docetaxel-BSA as described in Examples 12 and 13. The antibody screening assay was performed by diluting the antisera containing docetaxel antibodies to 1:100, 1:1,000, 1:10,000 and 1:100,000 in phosphate buffered saline containing 0.1% BSA and 0.01% thimerosal. To each well of docetaxel-BSA sensitized wells (prepared in Examples 12 and 13) 100 μL of diluted antibody was added and incubated for 10 minutes at room temperature with shaking. During this incubation antibody binds to the docetaxel-conjugate in the well. The wells of the plates were washed three times with 0.02 M TRIS, 0.9% NaCl, 0.5% Tween-80 and 0.001% Thimerosal, pH 7.8 to remove any unbound antibody. […] Following the incubation for color development, 50 μL of stop solution (1.5% sodium fluoride in di H2O) was added to each well to stop the color development and after 10 seconds of shaking the absorbance was determined at 650 nm with a 96-well plate reader. The amount of antibody in a well was proportional to the absorbance measured and was expressed as the dilution (titer) resulting in an absorbance of 1.5. Titers were determined by graphing log antibody dilution of the antibody measured (x-axis) vs. absorbance 650 nm (y-axis) and extrapolating the titer at an absorbance of 1.5. The titer determined the concentration (dilution) of antibody used in the indirect competitive Microtiter plate assay described in Examples 15 and 16.
as §1

[3] = microtiter plate prepared as in Example 12
[4] = microtiter plate prepared as in Example 13

SMILES	percent cross-reactivity relative to docetaxel (ratio of IC50 for docetaxel to IC50 for analyte) [1]	percent cross-reactivity relative to docetaxel (ratio of IC50 for docetaxel to IC50 for analyte) [2, 3]	percent cross-reactivity relative to docetaxel (ratio of IC50 for docetaxel to IC50 for analyte) [2, 4]
CC(=O)O[C@@]12CO[C@@H]1CC(O)[C@@]1(C)C(=O)[C@H](O)C3=C(C)C(O)C[C@@](O)([C@@H](OC(=O)c4ccccc4)[C@H]21)C3(C)C (stereo partly drawn) [10-O-Deacytlbaccatin III, 10-O-Deacetylbaccatin III]	less than 1.0%	less than 0.02%	less than 0.01%
CC(=O)O[C@H]1C(=O)[C@@]2(C)[C@H]([C@H](OC(=O)c3ccccc3)[C@]3(O)C[C@H](OC(=O)[C@H](O)[C@@H](NC(=O)c4ccccc4)c4ccccc4)C(C)=C1C3(C)C)[C@]1(OC(C)=O)CO[C@@H]1C[C@@H]2O [Paclitaxel, paclitaxel]	less than 12%	less than 2%	less than 1%
